Tests used:
travellers = settings: 3851 travellers surveyed, prophylactic use; cited from earlier work
[1] = target: bovine striatal adenosine receptors (non-selective); settings: displacement of [3H]-NECA
Plasmodium falciparum = settings: Karle et al. 1993; cited from earlier work
mice [2] = test: Irwin screen of overt physiological and behavioral effects in mice; settings: for reduced activity, unkempt appearance, hunched body posture (late effects): high dose, daily p.o. dosing, about five days
[3] = target: T1, adenosine A2A receptors endogenously expressed in PC-12 cells (Rattus norvegicus, UniProt P30543); test: Agonist-induced increase in extracellular acidification rate (ECAR) in PC-12 cells, cytosensor microphysiometer; assay type: cell-based
T1 construct: PC12 cells endogenously express adenosine A2A receptors; host or cells: PC-12 cells
T1 sequence (P30543 whole entry): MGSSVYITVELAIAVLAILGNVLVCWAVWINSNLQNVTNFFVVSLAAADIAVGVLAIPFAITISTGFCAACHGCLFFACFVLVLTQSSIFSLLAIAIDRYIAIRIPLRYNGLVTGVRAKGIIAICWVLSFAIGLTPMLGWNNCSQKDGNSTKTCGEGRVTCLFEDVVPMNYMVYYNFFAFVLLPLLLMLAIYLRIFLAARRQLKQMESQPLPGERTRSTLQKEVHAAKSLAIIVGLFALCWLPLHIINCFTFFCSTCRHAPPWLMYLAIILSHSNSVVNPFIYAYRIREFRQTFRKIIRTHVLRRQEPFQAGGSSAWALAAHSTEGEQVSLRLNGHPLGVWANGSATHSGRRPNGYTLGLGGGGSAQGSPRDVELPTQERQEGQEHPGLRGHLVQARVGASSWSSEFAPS
Method: PC-12 cells (purchased from ECACC) were maintained in RPMI 1640 media (Sigma) supplemented with 2 mM L-glutamine and 10% FCS in a controlled environment of 5% CO2, 95% humidity at 37° C.
On the day of the assay the cells were gently harvested and centrifuged at 700 RPM for 10 min. The supernatant was discarded and the pellet re-suspended to a final density of approx. 1×10^6 cells/ml in modified RPMI 1640 media. 600 μl of this suspension was mixed with 200 μl of molten agarose cell entrapment media (Molecular Devices) pre-incubated to 37° C. The cell suspension was returned to the incubator for a further 10 minutes for equilibration. 10 μl of this cell agarose suspension was spotted onto the middle of the capsule insert well and allowed to set before being placed in the sensor chambers in the cytosensor® microphysiometer. […]
Agonist concentration curves were constructed by exposing the cells to increasing concentrations of agonist for a total exposure time of approximately 1 min 53 sec. Agonist concentration curves in the presence of antagonists were performed following pre-incubation of the cells to the antagonists for at least 20 min prior to agonist exposure (in the presence of the fixed antagonist concentration) Baseline acidification rates were normalised to 100%, and all responses were calculated as a % increase over normalised baseline. […]

mice [4] = test: Potentiation of pentylenetetrazole-induced seizures (proconvulsant effect) in mice; settings: 300 mg/kg p.o., 24 hrs after a single dose
[5] = target: T2, human recombinant (HEK-293) adenosine A3 receptors (Homo sapiens, UniProt P0DMS8); settings: comparative literature data for reference ligands; cited from earlier work
T2 construct: expressed in transfected cells; host or cells: HEK-293
T2 sequence (P0DMS8 1-318): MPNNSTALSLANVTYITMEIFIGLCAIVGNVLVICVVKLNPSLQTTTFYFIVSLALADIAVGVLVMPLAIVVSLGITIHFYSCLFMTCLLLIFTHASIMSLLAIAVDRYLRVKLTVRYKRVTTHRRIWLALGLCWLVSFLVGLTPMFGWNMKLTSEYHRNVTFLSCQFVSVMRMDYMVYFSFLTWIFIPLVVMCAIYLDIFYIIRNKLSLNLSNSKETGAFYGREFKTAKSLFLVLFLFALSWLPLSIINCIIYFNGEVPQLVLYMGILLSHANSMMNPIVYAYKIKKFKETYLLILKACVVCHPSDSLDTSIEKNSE

SMILES	Ki [1] [µM]	reduced activity, unkempt appearance, hunched body posture (late effects) (mice [2])	Ki [5] [µM]	other results
O[C@H](c1cc(C(F)(F)F)nc2c(C(F)(F)F)cccc12)[C@@H]1CCCCN1 (racemic) [mefloquine, (R*,S*)-(±)-α-2-Piperidinyl-2,8-bis(trifluoromethyl)-4-quinolinemethanol]				adverse neuropsychiatric events compared with proguanil plus chloroquine (travellers): significant excess of adverse neuropsychiatric events
O[C@H](c1cc(C(F)(F)F)nc2c(C(F)(F)F)cccc12)[C@@H]1CCCCN1 [(+)-enantiomer, (+)-(11R,2′S)-α-2-piperidinyl-2,8-bis(trifluoromethyl)-4-quinolinemethanol]	38	these effects only became apparent after 5-6 days, and did not include seizures		factor by which the (+)-enantiomer was more potent than the (−)-enantiomer (Plasmodium falciparum): 1.69-1.81
O[C@@H](c1cc(C(F)(F)F)nc2c(C(F)(F)F)cccc12)[C@H]1CCCCN1 [(−)-enantiomer, (−)-(11S,2′R)-α-2-piperidinyl-2,8-bis(trifluoromethyl)-4-quinolinemethanol]	0.083	showed reduced activity, unkempt appearance and assumed a hunched body posture		effect on the CGS 21680-induced increase in ECAR ([3]; agonist CGS 21680, FIG. 6): specific to adenosine A2A receptors; effect on the NECA-induced increase in ECAR ([3]; agonist NECA, FIG. 5): binds to adenosine receptors as an antagonist; latency to onset of clonic seizures induced by infusion of pentylenetetrazole (PTZ) (mice [4]): significantly reduced the latency to onset of clonic seizures; behavioral effects twenty-four hours after the first dose (mice [2]; 300 mg/kg p.o., 24 hours): difficult to handle and displayed aggression toward cage-mates; qualitative behavioral difference between the enantiomers (mice [2]; daily dosing 30, 100, 300 mg/kg p.o.): appearing more potent in eliciting spontaneous seizures, irritability and aggressiveness
OC[C@H]1O[C@@H](n2cnc3c(NC4CCCCC4)ncnc32)[C@H](O)[C@@H]1O [CHA]			7.7	
CNC(=O)[C@H]1O[C@@H](n2cnc3c(N)ncnc32)[C@H](O)[C@@H]1O [MECA, 5′-N-methylcarboxamidoadenosine, reference compound]	0.058			
Nc1nc(NCCc2ccc(O)cc2)nc2nc(-c3ccco3)nn12 [ZM241385]			151	

From US6664397B1, “Use of (+)mefloquine for the treatment of malaria” (Vernalis Research Limited, priority 1997, dated 2003)
